Measured values reported in ChEMBL document CHEMBL4138141, “Rapid generation of a novel DPP-4 inhibitor with long-acting properties: SAR study and PK/PD evaluation” (Eur J Med Chem, 2017).

Tests used:
[1] = Half life in human liver microsomes at […] by LC-MS/MS analysis; assay type: ADME, microsome
[2] = Half life in rat liver microsomes at […] by LC-MS/MS analysis; assay type: ADME, microsome
Rattus norvegicus [3] = assay: Clearance in Sprague-Dawley rat at 25 mg/kg, po or 5 mg/kg, iv administered as single dose by LC-MS/MS analysis; assay type: ADME, organism-based; conditions: in vivo
Rattus norvegicus [4] = assay: AUC (0 to t) in Sprague-Dawley rat at 25 mg/kg, po administered as single dose by LC-MS/MS analysis; assay type: ADME, organism-based; conditions: in vivo
[5] = Tmax in Sprague-Dawley rat at 25 mg/kg, po or 5 mg/kg, iv administered as single dose by LC-MS/MS analysis; assay type: ADME, organism-based; conditions: in vivo
[6] = Apparent volume of distribution during terminal phase in Sprague-Dawley rat at 25 mg/kg, po or 5 mg/kg, iv administered as single dose by LC-MS/MS analysis; assay type: ADME, organism-based; conditions: in vivo, read-out: Vz/F
Rattus norvegicus [7] = assay: Oral bioavailability in Sprague-Dawley rat at 25 mg/kg administered as single dose by LC-MS/MS analysis; assay type: ADME, organism-based; conditions: in vivo
[8] = Half life in Sprague-Dawley rat at 25 mg/kg, po administered as single dose by LC-MS/MS analysis; assay type: ADME, organism-based; conditions: in vivo
[9] = Metabolic stability in human liver microsomes assessed as parent compound remaining at […] incubated for 5 mins measured up to 60 mins by LC-MS/MS analysis; assay type: ADME, microsome; conditions: read-out: Stability
[10] = Metabolic stability in dog liver microsomes assessed as parent compound remaining at […] incubated for 5 mins measured up to 60 mins by LC-MS/MS analysis; assay type: ADME, Canis lupus familiaris, microsome; conditions: read-out: Stability
[11] = Metabolic stability in monkey liver microsomes assessed as parent compound remaining at […] incubated for 5 mins measured up to 60 mins by LC-MS/MS analysis; assay type: ADME, Macaca mulatta, microsome; conditions: rhesus monkey, read-out: Stability
[12] = Metabolic stability in mouse liver microsomes assessed as parent compound remaining at […] incubated for 5 mins measured up to 60 mins by LC-MS/MS analysis; assay type: ADME, microsome; conditions: read-out: Stability
[13] = Metabolic stability in rat liver microsomes assessed as parent compound remaining at […] incubated for 5 mins measured up to 60 mins by LC-MS/MS analysis; assay type: ADME, microsome; conditions: read-out: Stability

Row | half-life [1] [h] | half-life [2] [h] | Structure (SMILES) | other results
1 | 2.21 | 0.625 | N#Cc1ccc(F)cc1Cn1c(N2CCC[C@@H](N)C2)nc2c(Br)c[nH]c2c1=O | 
2 | 2.67 | 0.783 | N#Cc1ccc(F)cc1Cn1c(N2CCC[C@@H](N)C2)nc2c(-c3ccsc3)c[nH]c2c1=O | CL (Rattus norvegicus [3]): 147 mL/min/kg; AUCt (Rattus norvegicus [4]): 2920 ng·h/mL; Tmax [5]: 2.33 h; Vd/F [6]: 104 L/kg; F (Rattus norvegicus [7]): 33.4%; half-life [8]: 7.89 h
3 | > 3.33 | 3.28 | CS(=O)(=O)c1ccccc1-c1c[nH]c2c(=O)n(Cc3cc(F)ccc3C#N)c(N3CCC[C@@H](N)C3)nc12 | 
4 | 1.64 | 0.838 | N#Cc1ccc(F)cc1Cn1c(N2CCC[C@@H](N)C2)nc2c(F)c[nH]c2c1=O | 
5 | > 3.33 | 1.65 | CS(=O)(=O)c1cccc(-c2c[nH]c3c(=O)n(Cc4cc(F)ccc4C#N)c(N4CCC[C@@H](N)C4)nc23)c1 | 
6 | 3.01 | 1.2 | N#Cc1ccc(F)cc1Cn1c(N2CCC[C@@H](N)C2)nc2c(-c3ccc(F)cc3)c[nH]c2c1=O | 
7 | 3.33 | > 1 | N#Cc1ccc(F)cc1Cn1c(N2CCC[C@@H](N)C2)nc2cc[nH]c2c1=O | CL (Rattus norvegicus [3]): 222 mL/min/kg; AUCt (Rattus norvegicus [4]): 1880 ng·h/mL; Tmax [5]: 0.14 h; Vd/F [6]: 106 L/kg; F (Rattus norvegicus [7]): 10.6%; half-life [8]: 5.46 h
8 | > 3.33 | 2.78 | CS(=O)(=O)c1ccc(-c2c[nH]c3c(=O)n(Cc4cc(F)ccc4C#N)c(N4CCC[C@@H](N)C4)nc23)cc1F | 
9 | 0.722 | > 3.33 | CC(C)S(=O)(=O)c1ccc(-c2c[nH]c3c(=O)n(Cc4cc(F)ccc4C#N)c(N4CCC[C@@H](N)C4)nc23)cc1 | 
10 | > 3.33 | > 3.33 | N#Cc1ccc(F)cc1Cn1c(N2CCC[C@@H](N)C2)nc2c(-c3ccc(S(N)(=O)=O)cc3)c[nH]c2c1=O | 
11 | > 3.33 | > 3.33 | CS(=O)(=O)c1ccc(-c2c[nH]c3c(=O)n(Cc4cc(F)ccc4C#N)c(N4CCC[C@@H](N)C4)nc23)cc1 | 
12 | > 3.33 | 1.59 | CS(=O)(=O)c1ccc(-c2c[nH]c3c(=O)n(Cc4cc(F)ccc4C#N)c(N4CCC[C@@H](N)C4)nc23)c(F)c1 | 
13 | 0.585 | 0.609 | N#Cc1ccc(F)cc1Cn1c(N2CCC[C@@H](N)C2)nc2c(-c3cccs3)c[nH]c2c1=O | 
14 | > 3.33 | > 3.33 | Cn1c(=O)cc(N2CCC[C@@H](N)C2)n(Cc2cc(F)ccc2C#N)c1=O [TRELAGLIPTIN] | CL (Rattus norvegicus [3]): 128 mL/min/kg; AUCt (Rattus norvegicus [4]): 6820 ng·h/mL; remaining at 60 min [9]: > 80%; Tmax [5]: 0.7 h; Vd/F [6]: 48.2 L/kg; F (Rattus norvegicus [7]): 46.9%; remaining at 60 min [10]: > 80%; remaining at 60 min [11]: > 80%; remaining at 60 min [12]: > 80%; half-life [8]: 5.13 h; remaining at 60 min [13]: > 80%
